Data: patent publication US9701556B1, “Compositions, methods, and systems for reducing contamination” (priority 2004, dated 2017)
Values joined by “and” are separate entries in the source; they are usually repeats but may differ in a detail not shown here. Equal values may be shown once.

Columns and labels:
[1] = Treatment of sulfides in municipal wastewater with ferric chelants and hydrogen peroxide; details: for sulfide reduction after 15 minutes: 2.5:1.0 peroxide to sulfide, 105.8 ppm hydrogen peroxide, 20 ppm chelant where added, peroxide alone averaged; for sulfide treatment after 15 minutes: 37.8 ppm hydrogen peroxide, 12 ppm chelant where added; for Percentage of Sulfide Treated, Dose 1 12 ppm Chelant 37.8 ppm H2O2 / Percentage of Sulfide Treated, Dose 2 6 ppm Chelant 37.8 ppm H2O2 / Percentage of Sulfide Treated, Dose 1 20 ppm Chelant 105.8 ppm H2O2 / Percentage of Sulfide Treated, Dose 2 10 ppm Chelant 105.8 ppm H2O2: after 30 minutes; for Percentage of Sulfide Treated, Dose 1 12 ppm Chelant 37.8 ppm H2O2 / Percentage of Sulfide Treated, Dose 2 6 ppm Chelant 37.8 ppm H2O2: 1.5:1.0 ratio of peroxide to sulfide; for Percentage of Sulfide Treated, Dose 1 20 ppm Chelant 105.8 ppm H2O2 / Percentage of Sulfide Treated, Dose 2 10 ppm Chelant 105.8 ppm H2O2: 2.5:1.0 ratio of peroxide to sulfide; for sulfide treatment compared with hydrogen peroxide alone, in words: over 30 minutes of treatment; for Sulfide Remaining, Dose 1 12 ppm Chelant / Sulfide Remaining, Dose 2 6 ppm Chelant: 37.8 ppm H2O2, start 25.4 ppm sulfide; for Sulfide Remaining, Dose 1 20 ppm Chelant / Sulfide Remaining, Dose 2 10 ppm Chelant: 105.8 ppm H2O2, start 42.3 ppm sulfide
heterotrophic bacteria = assay: Disinfection of wastewater with chelated iron compounds, total heterotrophic bacteria counts; format: cell-based; details: for Test 1 CFUs/ml, 19.8 ppm H2O2 6 ppm Fe-Chelant / Test 2 CFUs/ml, 39.6 ppm H2O2 12 ppm Fe-Chelant / Test 3 CFUs/ml, 12 ppm Fe-Chelant: 30 minutes, raw average 18,188 CFUs; for Test 3 CFUs/ml, 12 ppm Fe-Chelant: chelant alone, no H2O2; for disinfection effect, in words: compared with hydrogen peroxide alone
Description: A 10 gallon sample of wastewater from the Massaponax Wastewater Plant was collected and allowed to sit undisturbed for thirty minutes. The clarified supernatant was then pored off of the top of the settled solids within the sample. The supernatant was then mixed and four samples were collected to determine untreated heterotrophic bacteria counts. […] were dissolved in distilled water at 0.4334M. Ferric chloride was added in amounts to achieve saturation of chelant sites on the respective chelants. […] Twenty individual liter samples of supernatant were then decanted from the well-mixed wastewater sample for testing. Four chelated iron products with peroxide were tested at two test concentrations and compared to samples receiving peroxide only and iron chelate only. […] Individual samples were dosed with the respective additives, mixed with a magnetic stir bar and allowed to react for 30 minutes. Samples were then decanted to sterile sample containers containing sodium thiosulfate to stop the oxidation process and preserve the sample. Samples were then placed in a refrigerator until all samples were finished. Samples were packaged in a standard cooler with ice packs and sent via overnite delivery to ProChem Labs in Lynchburg, Va. for analysis for total heterotrophic bacteria counts.

[2] = Treatment of sulfides in municipal wastewater with ferric chelants and ozone; details: 4 ppm ferric chelant where added; for Overall total percentage of sulfide reduction: ozone; for sulfide remaining: ozone at ~13.4 ppm
Fecal Coliform = assay: Disinfection of wastewater, fecal coliform count; format: cell-based; details: 50 microliters 35% H2O2 (with or without 50 microliters Fe-GLC), after twenty minutes; control 2200
[3] = Comparative treatment of 2,4-D in water, GC analysis; details: after four hours
[4] = cited from earlier work
[5] = Series One, contact time 5 minutes
[6] = Series One, contact time 15 minutes
[7] = Series One, contact time 30 minutes
[8] = Series One, no H2O2, start 25.4 ppm sulfide, contact time 30 minutes
[9] = Series Two, 20 ppm chelant, no H2O2, start 42.3 ppm sulfide, contact time 30 minutes
[10] = Series Two, contact time 5 minutes
[11] = Series Two, contact time 15 minutes
[12] = Series Two, contact time 30 minutes
[13] = start 13.70, contact time 5 minutes
[14] = start 13.70, contact time 10 minutes
[15] = start 13.70, contact time 20 minutes
[16] = Series One, contact time 5 minutes, listed as Ferric NTA

| Compound | Percentage of Sulfide Treated, Dose 1 12 ppm Chelant 37.8 ppm H2O2 [1] | Percentage of Sulfide Treated, Dose 2 6 ppm Chelant 37.8 ppm H2O2 [1] | Percentage of Sulfide Treated, Dose 1 20 ppm Chelant 105.8 ppm H2O2 [1] | Percentage of Sulfide Treated, Dose 2 10 ppm Chelant 105.8 ppm H2O2 [1] | sulfide treatment compared with hydrogen peroxide alone, in words [1] | Test 1 CFUs/ml, 19.8 ppm H2O2 6 ppm Fe-Chelant (heterotrophic bacteria) [CFUs/ml] | Test 2 CFUs/ml, 39.6 ppm H2O2 12 ppm Fe-Chelant (heterotrophic bacteria) [CFUs/ml] | Test 3 CFUs/ml, 12 ppm Fe-Chelant (heterotrophic bacteria) | disinfection effect, in words (heterotrophic bacteria) | Overall total percentage of sulfide reduction [2] [%] | Sulfide Remaining, Dose 1 12 ppm Chelant [1, 5] [ppm] | Sulfide Remaining, Dose 2 6 ppm Chelant [1, 5] [ppm] | Sulfide Remaining, Dose 1 12 ppm Chelant [1, 6] [ppm] | Sulfide Remaining, Dose 4 Chelant Only [1, 9] [ppm] | Sulfide Remaining, Dose 1 20 ppm Chelant [1, 10] [ppm] | Sulfide Remaining, Dose 2 10 ppm Chelant [1, 10] [ppm] | Sulfide Remaining, Dose 1 20 ppm Chelant [1, 11] [ppm] | Sulfide Remaining, Dose 2 10 ppm Chelant [1, 11] [ppm] | Sulfide Remaining, Dose 1 20 ppm Chelant [1, 12] [ppm] | Sulfide Remaining, Dose 2 10 ppm Chelant [1, 12] [ppm] | also measured |
| --- | --- | --- | --- | --- | --- | --- | --- | --- | --- | --- | --- | --- | --- | --- | --- | --- | --- | --- | --- | --- | --- |
| O=C([O-])CN(CCN(CC(=O)[O-])CC(=O)[O-])CC(=O)[O-].[Fe+3] [Fe-EDTA] | 68.5 | 64.2 | 87.5 | 83.7 | noticeably better | 360 | 59 | 18,200 CFUs/ml | very little effect on viable cells beyond that exhibited by hydrogen peroxide alone | 64 |  |  |  |  |  |  |  |  |  |  | sulfide reduction after 15 minutes [1]: 60%; sulfide treatment after 15 minutes [1]: 61%; Overall total percentage of sulfide reduction ([2]; listed as ferric EDTA): 64% |
| O=C([O-])CN(CCO)CC(=O)[O-].[Fe+3] [Fe-HEIDA] | 44.1 | 41.3 | 69.5 | 66.9 | did not perform well | 1350 | 84 | 16,700 CFUs/ml | very little effect on viable cells beyond that exhibited by hydrogen peroxide alone | 60 |  |  |  |  |  |  |  |  |  |  | Overall total percentage of sulfide reduction ([2]; listed as ferric HEIDA): 60% |
| ferric gluconate [Fe-GLC] | 83.1 | 70.8 | 97.4 | 94.8 | noticeably better | 98 | 28 | 22,600 CFUs/ml | better than peroxide alone | 90 | 14.2 | 15.9 | 7.3 | 43.0 | 18.6 | 23.5 | 5.6 | 7.3 | 1.1 | 2.2 | Fecal Coliform (Fecal Coliform): no detectable CFUs; sulfide reduction after 15 minutes [1]: 86.8%; sulfide treatment after 15 minutes [1]: 70%; Sulfide Remaining, Dose 2 6 ppm Chelant [1, 6]: 11.5 ppm; Sulfide Remaining, Dose 1 12 ppm Chelant [1, 7]: 4.3 ppm; Sulfide Remaining, Dose 2 6 ppm Chelant [1, 7]: 7.4 ppm; Sulfide Remaining, Dose 4 Chelant Only [1, 8]: 24.9 ppm; sulfide remaining [2, 13]: 3.40 ppm; sulfide remaining [2, 14]: 2.80 ppm; sulfide remaining [2, 15]: 1.40 ppm; Overall total percentage of sulfide reduction ([2]; listed as Fe-Gluconate): 90%; effect on 2,4-D, in words [3]: substantially reduced |
| O=C([O-])CN(CC(=O)[O-])CC(=O)[O-].[Fe+3] [Fe-NTA] | 78.3 | 68.9 | 93.4 | 90.0 | noticeably better | 370 | 75 | 18,300 CFUs/ml | very little effect on viable cells beyond that exhibited by hydrogen peroxide alone | 91 |  |  |  | 41.0 | 23.3 | 26.7 | 12.6 | 16.3 | 2.8 | 4.2 | sulfide reduction after 15 minutes [1]: 70.2%; sulfide treatment after 15 minutes [1]: 73%; Sulfide Remaining, Dose 1 12 ppm Chelant [1, 16]: 15.2 ppm and 20.0 ppm; Sulfide Remaining, Dose 2 6 ppm Chelant [1, 16]: 15.9 ppm and 20.3 ppm; Sulfide Remaining, Dose 2 6 ppm Chelant ([1]; Series One, contact time 15 minutes, listed as Ferric NTA): 12.6 ppm and 16.4 ppm; Sulfide Remaining, Dose 2 6 ppm Chelant ([1]; Series One, contact time 30 minutes, listed as Ferric NTA): 7.9 ppm and 14.9 ppm; Sulfide Remaining, Dose 4 Chelant Only ([1]; Series One, no H2O2, start 25.4 ppm sulfide, contact time 30 minutes, listed as Ferric NTA): 24.6 ppm and 25.2 ppm; sulfide remaining [2, 13]: 3.40 ppm; sulfide remaining [2, 14]: 1.90 ppm; sulfide remaining [2, 15]: 1.30 ppm; Overall total percentage of sulfide reduction ([2]; listed as ferric NTA): 91% |
| O=[O+][O-] [Ozone only, Ozone] |  |  |  |  |  |  |  |  |  | 46 |  |  |  |  |  |  |  |  |  |  | sulfide remaining [2, 13]: 8.05 ppm; sulfide remaining [2, 14]: 7.50 ppm; sulfide remaining [2, 15]: 7.40 ppm |
| O=C([O-])CC(O)(CC(=O)[O-])C(=O)[O-].[Fe+3] [Ferric Citrate] | 58.7 | 51.2 | 66.2 | 69.5 |  |  |  |  |  |  | 17.8 | 18.1 | 14.1 | 42.0 | 30.1 | 29.9 | 19.6 | 20.2 | 14.3 | 12.9 | Sulfide Remaining, Dose 2 6 ppm Chelant [1, 6]: 15.8 ppm; Sulfide Remaining, Dose 1 12 ppm Chelant [1, 7]: 10.5 ppm; Sulfide Remaining, Dose 2 6 ppm Chelant [1, 7]: 12.4 ppm; Sulfide Remaining, Dose 4 Chelant Only [1, 8]: 25.0 ppm |
| O=C([O-])[C@H](O)[C@@H](O)[C@H](O)[C@H](O)CO.[Na+] [Sodium gluconate] |  |  |  |  |  |  |  |  |  |  |  |  |  |  |  |  |  |  |  |  | readily biodegradable ([4]; after 2 days): 98%; solubility in water [4]: very soluble in water |
| Ferric Gallate | 59.1 | 55.9 | 68.7 | 69.0 | did not perform well overall |  |  |  |  |  | 18.4 | 18.0 | 14.0 | 43.0 | 29.2 | 27.8 | 20.2 | 22.2 | 13.2 | 13.1 | Sulfide Remaining, Dose 2 6 ppm Chelant [1, 6]: 13.6 ppm; Sulfide Remaining, Dose 1 12 ppm Chelant [1, 7]: 10.4 ppm; Sulfide Remaining, Dose 2 6 ppm Chelant [1, 7]: 11.2 ppm; Sulfide Remaining, Dose 4 Chelant Only [1, 8]: 24.7 ppm |
| Ferric Ascorbate | 62.2 | 59.0 | 74.5 | 71.9 | some modest improvement over hydrogen peroxide treatment alone |  |  |  |  |  | 16.6 | 17.2 | 11.8 | 41.8 | 26.9 | 27.2 | 17.7 | 19.7 | 10.8 | 11.9 | Sulfide Remaining, Dose 2 6 ppm Chelant [1, 6]: 12.4 ppm; Sulfide Remaining, Dose 1 12 ppm Chelant [1, 7]: 9.6 ppm; Sulfide Remaining, Dose 2 6 ppm Chelant [1, 7]: 10.4 ppm; Sulfide Remaining, Dose 4 Chelant Only [1, 8]: 24.6 ppm |
